In patent publication US20050197350A1, “Novel quinoline, tetrahydroquinazoline, and pyrimidine derivatives and methods of treatment related to the use thereof” (TAISHO PHARMACEUTICAL CO., LTD., priority 2003, published 2005):
Structures can show the parent of a compound that is named as a salt. Where two headings read alike, the source gives them in different places. One block for each compound: values may come before it.

Molecular target: MCH receptor (Homo sapiens, UniProt Q99705)
Assay: High throughput functional screening FLIPR/FDSS6000 (intracellular Ca2+ evoked by MCH)
Format: cell-based
Conditions: FLIPR/FDSS, antagonist activity vs 50 nM MCH, class by percent of control at 10^−7 M or IC50, read-out: class
Summary of the method: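 For antagonist testing, compound-treated cells (30 min, 37 °C) were stimulated with 50 nM MCH and intracellular Ca2+ followed by Fluo4 fluorescence on FLIPR/FDSS6000. Receptor was a constitutively active, non-endogenous MCH receptor; dye loading 4 μM Fluo4-AM, 1 h, 37 °C.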

Structure (SMILES): CN(C)c1nc(N[C@H]2CC[C@@H](NCc3ccc(Br)cc3OC(F)(F)F)CC2)nc2c1CCCC2 [Example 13, N^2-[cis-4-(4-Bromo-2-trifluoromethoxy-benzyl)-amino-cyclobexyl]-N^4,N^4-dimethyl-5,6,7,8-tetrahydro-quinazoline-2,4-diamine dihydrochloride]
- IC50 (table after the classification): > 200 nM

Structure (SMILES): O=C(N[C@H]1CC[C@@H](Nc2ccc3ccccc3n2)CC1)C1c2ccccc2Oc2ccccc21 [Example 3043, 9H-Xanthene-9-carboxylic acid [cis-4-(quinolin-2-ylamino)-cyclohexyl]-amide hydrochloride]
- IC50 (table after the classification): < 50 nM

Structure (SMILES): Cc1cc(N[C@H]2CC[C@@H](NC(=O)c3cccc(Br)c3)CC2)nc2ccccc12 [Example 3086, 3-Bromo-N-[cis-4-(4-methyl-quinolin-2-ylamino)-cyclohexyl]-benzamide hydrochloride]
- IC50 (table after the classification): < 50 nM

Structure (SMILES): CN(C)c1nc(N[C@H]2CC[C@@H](NC(=O)c3ccc(F)c(F)c3)CC2)ncc1-c1ccccc1 [Example 3138, N-[cis-4-(4-Dimethylamino-5-phenyl-pyrimidin-2-ylamino)-cyclohexyl]-3,4-difluoro-benzamide hydrochloride]
- IC50 (table after the classification): 50 to 200 nM

Structure (SMILES): Cc1cc(N[C@H]2CC[C@@H](NC(=O)c3cccc(C#N)c3)CC2)nc2ccccc12 [Example 3087, 3-Cyano-N-[cis-4-(4-methyl-quinolin-2-ylamino)-cyclohexyl]-benzamide hydrochloride]
- IC50 (table after the classification): < 50 nM

Structure (SMILES): O=C(N[C@H]1CC[C@@H](Nc2ccc3ccccc3n2)CC1)c1cccnc1Oc1ccc(Cl)cc1 [Example 3057, 2-(4-Chloro-phenoxy)-N-[cis-4-(quinolin-2-ylamino)-cyclohexyl]-nicotinamide hydrochloride]
- IC50 (table after the classification): < 50 nM

Structure (SMILES): Cc1cc(N[C@H]2CC[C@@H](NC(=O)CNc3ccc(Cl)c(Cl)c3)CC2)nc2ccccc12 [Example 3103, 2-(3,4-Dichloro-phenylamino)-N-[cis-4-(4-methyl-quinolin-2-ylamino)-cyclohexyl]-acetamide dihydrochloride]
- IC50 (table after the classification): 50 to 200 nM

Structure (SMILES): CN(C)c1cc(N[C@H]2CC[C@@H](NCCc3ccc(Br)cc3OC(F)(F)F)CC2)nc2ccccc12 [Example 6, N^2-{cis-4-[2-(4-Bromo-2-trifluoromethoxy-phenyl)ethylamino]-cyclohexyl}-N^4,N^4-dimethyl-quinoline-2,4-diamine dihydrochloride]
- IC50 (table after the classification): 50 to 200 nM

Structure (SMILES): O=C(N[C@H]1CC[C@@H](Nc2ccc3ccccc3n2)CC1)c1cccnc1Oc1ccccc1Br [Example 3048, 2-(2-Bromophenoxy)-N-[cis-4-(quinolin-2-ylamino)-cyclohexyl]-nicotinamide hydrochloride]
- IC50 (table after the classification): < 50 nM

Structure (SMILES): Cc1cc(N[C@H]2CC[C@@H](NC(=O)c3csc([N+](=O)[O-])c3)CC2)nc2ccccc12 [Example 3074, 5-Nitro-thiophene-3-carboxylic acid [cis-4-(4-methyl-quinolin-2-ylamino)-cyclohexyl]-amide hydrochloride]
- IC50 (table after the classification): < 50 nM

Structure (SMILES): Cc1cc(N[C@H]2CC[C@@H](NC(=O)C(c3ccccc3)c3ccccc3)CC2)nc2ccccc12 [Example 3089, N-[cis-4-(4-Methyl-quinolin-2-ylamino)-cyclohexyl]-2,2-diphenyl-acetamide hydrochloride]
- IC50 (table after the classification): < 50 nM

Now from value to compound:

- IC50 (table after the classification): 50 to 200 nM
Structure (SMILES): CN(C)c1ccnc(N[C@H]2CC[C@@H](NC(=O)c3cc(F)cc(Cl)c3)CC2)n1 [Example 3215, 3-Chloro-N-cis-4-(4-dimethylamino-pyrimidin-2-ylamino)-cyclohexyl]-5-fluoro-benzamide hydrochloride]

- IC50: > 200 nM
Structure (SMILES): Cc1cnc(N[C@H]2CC[C@@H](C(=O)N[C@@H](C)c3ccccc3F)CC2)nc1N(C)C [Example 3295, cis-4-{[4-(dimethylamino)-5-methylpyrimidin-2-yl]amino}-N-[(1S)-1-(2-fluorophenyl)ethyl]cyclohexanecarboxamide]

- IC50: < 50 nM
Structure (SMILES): Cc1cnc(N[C@H]2CC[C@@H](NC(=O)Nc3ccc(F)cc3)CC2)nc1N(C)C [Example 3326, N-(cis-4-{[4-(dimethylamino)-5-methylpyrimidin-2-yl]amino}cyclohexyl)-N′-(4-fluorophenyl)urea]

- IC50 (table after the classification): > 200 nM
Structure (SMILES): CN(C)c1ccnc(N[C@H]2CC[C@@H](CNC(=O)c3cccnc3Oc3ccccc3)CC2)n1 [Example 3145, N-[cis-4-(4-Dimethylamino-pyrimidin-2-ylamino)-cyclohexylmethyl]-2-phenoxy-nicotinamide hydrochloride]

- IC50 (table after the classification): < 50 nM
Structure (SMILES): CN(C)c1nc(N[C@H]2CC[C@@H](NC(=O)c3ccc(F)c(Cl)c3)CC2)ncc1F [Example 3229, 3-Chloro-N-[cis-4-(4-dimethylamino-5-fluoro-pyrimidin-2-ylamino)-cyclohexyl]-4-fluoro-benzamide hydrochloride]

- IC50: > 200 nM
Structure (SMILES): Cc1cc(N(C)C)nc(N[C@H]2CC[C@@H](NC(=O)c3cccnc3S(=O)(=O)c3ccccc3Br)CC2)n1 [Example 3372, 2-[(2-bromophenyl)sulfonyl]-N-(cis-4-{[4-(dimethylamino)-6-methylpyrimidin-2-yl]amino}cyclohexyl)nicotinamide]

- IC50 (table after the classification): < 50 nM
Structure (SMILES): Cc1cc(N[C@H]2CC[C@@H](NC(=O)c3cc(F)cc(F)c3)CC2)nc2ccccc12 [Example 3166, 3,5-Difluoro-N-[cis-4-(4-methylquinolin-2-ylamino)-cyclohexyl]-benzamide hydrochloride]

- IC50: < 50 nM
Structure (SMILES): Cc1cnc(N[C@H]2CC[C@@H](NC(=O)Nc3c(Cl)cc(Cl)cc3Cl)CC2)nc1N(C)C [Example 3345, N-(cis-4-{[4-(dimethylamino)-5-methylpyrimidin-2-yl]amino}cyclohexyl)-N′-(2,4,6-trichlorophenyl)urea]

- IC50 (table after the classification): < 50 nM
Structure (SMILES): Cc1cc(N[C@H]2CC[C@@H](NC(=O)c3ccc(F)cc3)CC2)nc2ccccc12 [Example 3169, 4-Fluoro-N-[cis-4-(4-methyl-quinolin-2-ylamino)-cyclohexyl]-benzamide hydrochloride]

- IC50: < 50 nM
Structure (SMILES): Cc1cnc(N[C@H]2CC[C@@H](NC(=O)c3cccnc3S(=O)(=O)c3ccc(F)cc3)CC2)nc1N(C)C [Example 3281, N-(cis-4-{[4-(dimethylamino)-5-methylpyrimidin-2-yl]amino}cyclohexyl)-2-[(4-fluorophenyl)sulfonyl]nicotinamide]

- IC50 (table after the classification): < 50 nM
Structure (SMILES): Cc1cc(N[C@H]2CC[C@@H](NC(=O)c3cc(F)c(F)c(F)c3)CC2)nc2ccccc12 [Example 3180, 3,4,5-Trifluoro-N-[cis-4-(4-methyl-quinolin-2-ylamino)-cyclohexyl]-benzamide hydrochloride]

- IC50: < 50 nM
Structure (SMILES): CCN(C(=O)N[C@H]1CC[C@@H](Nc2ncc(C)c(N(C)C)n2)CC1)c1ccccc1 [Example 3350, N′-(cis-4-{[4-(dimethylamino)-5-methylpyrimidin-2-yl]amino}cyclohexyl)-N-ethyl-N-phenylurea]

- IC50: < 50 nM
Structure (SMILES): Cc1cnc(N[C@H]2CC[C@@H](NC(=O)[C@@H]3C[C@H]3c3cccc(Cl)c3)CC2)nc1N(C)C (relative stereo) [Example 3317, trans-2-(3-chlorophenyl)-N-(cis-4-{[4-(dimethylamino)-5-methylpyrimidin-2-yl]amino}cyclohexyl)-cyclopropanecarboxamide]

- IC50 (table after the classification): < 50 nM
Structure (SMILES): CN(C)c1cc(N[C@H]2CC[C@@H](NC(=O)c3csc([N+](=O)[O-])c3)CC2)nc2ccccc12 [Example 3189, 5-Nitro-thiophene-3-carboxylic acid [cis-4-(4-dimethylamino-quinolin-2-ylamino)-cyclohexyl]-amide hydrochloride]
